From patent publication US4537774A, “Hot-water extracts of neem bark” (priority 1980, dated 1985)
≈ marks a conversion by molar mass, not a printed value. Starred links: 1 amine or outer side, 2 acyl side, 3 side chain; linkers in the order of their positions; H or OH if unused. Positions of bridges follow the written chain, without caps; N, C: chain ends. Non-standard residues stand in square brackets, D forms with d. Residues, ends and D or L forms follow the SMILES beside them. Chains are numbered I, II in the order given. Actinocin(9to1) = Cc1c2oc3c(C)ccc(C(=O)[*:1])c3nc-2c(C(=O)[*:2])c(N)c1=O; NMeV = CN[C@H](C(=O)O)C(C)C; Sar = CNCC(=O)O

Assays:
sarcoma 180 solid tumor = assay: Effects on sarcoma 180 solid tumor (Test IV); assay type: in vivo, mouse; settings: for Rating / T/C (%): Table IV; for T/C (%): tumor weight ratio
Description: Test materials were prepared in the same manner as in Test III under (1).
A cell suspension containing 1×10^8 cells per ml. was prepared in the same way as in Test III under (2). Four week old-ICR mice was innoculated subcutaneously on the back with 0.1 ml. of the suspension by means of a syringe.
As in Test III under (3), a group of 6 animals was used for each concentration of each test material.
Grown tumor tissue was resected on the […] of the tumor cell transplantation and weighed. An average for the group of 6 animals was taken for the evaluation. The effect was evaluated on the basis of ratio of the average weight for the treated animals to that of the control animals (T/C). […] Ratios (T/C) of 100-71% were rated ineffective (-), of 70-51% plus 1 (+), of 50-21% plus 2 (++), and of 20-0% plus 3 (+++).
(§1) The neem extracts produced in the above examples were tested for effects on sarcoma 180 ascites and solid tumors according to the methods described in the aforementioned Tests.

[1] = system: sarcoma 180 ascites tumor; assay: Effects on sarcoma 180 ascites tumor (Test III); assay type: in vivo, mouse; settings: for Rating / T/C (%): Table III, i.p.; for T/C (%): TPCV ratio
Description: A portion of each of the extraction fractions was suspended or dissolved in 0.5% suspension of carboxymethylcellulose (CMC) in a phosphate buffer saline solution (PBS commercially available from GIBCO Laboratories, containing ca. 9.5 mM phosphate) to a predetermined concentration.
Mouse sarcoma 180 tumor cells which have been subcultivated intraperitoneally in ICR mice were drawn from the mouse together with the ascites and diluted with physiological saline solution to a cell count of 10^8 per ml. The tumor cell suspension thus prepared was transplanted by means of a syringe intraperitoneally into 4 week-old male ICR mice at a dose of 0.1 ml. Consequently, the cell count transplanted per mouse was 1×10^7.
The test material as prepared above was intraperitoneally administered at a dose of 0.1 ml. per mouse for 4 days once a day from the next day of the transplantation of mouse sarcoma 180 tumor cells. A group of 6 mice was employed for each concentration of each test material. […] As a control was administered the CMC-containing PBS as described above only in the same way as above. The dose is expressed as weight per kg. bodyweight of mouse.
On the 7th day of transplantation of the tumor cells bodyweight of each mouse was measured (X). Then, ascites was thoroughly drawn from the mouse, followed by measurement of the bodyweight (Y). X-Y is taken as the amount of ascites.
The drawn ascites was then introduced into a hematocrit tube and then centrifuged at 15,000 G for 5 minutes using a hematocrit rotor at a low temperature. There was thus made determination of the ascitocrit value, that is, proportion of the cells present in the ascites which corresponded to the hematocrit value in hematology. The value multiplied by volume of the ascites gives the volume of the cells present in the ascites. This is designated as total packed cell volume (TPCV).
Effect on the tumor was rated ineffective (-) when the TPCV ratio of the treated to the control (T/C) was 100-66%, plus 1 (+) when it was 65-41%, plus 2 (++) when it was 40-11%, and plus 3 (+++) when it was 10-0%.
as §1

mouse L-5178Y cells = assay: Effects on mouse L-5178Y cells (Test II); assay type: cell-based
Description: A medium containing 1×10^5 cells/ml. was prepared using mouse L-5178Y cells cultivated on RPMI-1640 medium containing 10% fetal bovine serum for 3 days. The medium was placed in a 96-well U-type microplate in an amount of 50 μl. per well.
A portion of the test material, which was one of the extracts according to the invention described in the above examples, was dissolved in the medium to a final concentration in the medium as shown in Table II below. The amount of the solution per well was 50 μl. The test material thus prepared was incubated in a carbon-dioxide incubator at 37° C. for 2 days. After completion of the incubation, the cells were collected and counted well by well, and the cell counts were compared with cell count of control which contained no test material. The cell count of control was approximately 8.6×10^5 /ml. In order to confirm the effects of the test materials, the same test was done with mitomycin C (MMC) or bleomycin (BLM). In the table below, T/C represents the ratio of count of the cells treated with the test material to that with no test material added. ID50 is the concentration of the test material required for decreasing concentration of the cells to 1/2 that of the control.

[2] = dose 0.1 μg./kg. (so in the source)
[3] = dose 33 μg./kg. (so in the source)
[4] = dose 20 μg./kg. (so in the source)
[5] = Tables V/VII, mice, 1.5 mg./kg.
[6] = dose 0.5 μg./kg. (so in the source)
[7] = dose 1.5 μg./kg. (so in the source)
[8] = dose 10 μg./kg. (so in the source)

## Cc1c2oc3c(C)ccc(C(=O)N[C@@H]4C(=O)N[C@H](C(C)C)C(=O)N5CCC[C@H]5C(=O)N(C)CC(=O)N(C)[C@@H](C(C)C)C(=O)O[C@@H]4C)c3nc-2c(C(=O)N[C@@H]2C(=O)N[C@H](C(C)C)C(=O)N3CCC[C@H]3C(=O)N(C)CC(=O)N(C)[C@@H](C(C)C)C(=O)O[C@@H]2C)c(N)c1=O [ACD, actinomycin D] (I: T[dV]P[Sar][NMeV] / II: T[dV]P[Sar][NMeV]; ester I:1-I:C, II:1-II:C; linker I:N-II:N via Actinocin(9to1))
Sarcoma 180 solid tumor; dose 0.1 mg./kg.
  Rating: - (Ratios (T/C) of 100-71% were rated ineffective (-))
  T/C (%): 102.4%
[1]; [2]
  Rating: +++ (plus 3 (+++) when it was 10-0%)
  T/C (%): 0%

## O=P1(N(CCCl)CCCl)NCCCO1 (stereo not drawn) [CYP, cyclophosphamide]
Sarcoma 180 solid tumor; dose 33 mg./kg.
  Rating: +++ (of 20-0% plus 3 (+++))
  T/C (%): 0%
[1]; [3]
  Rating: +++ (plus 3 (+++) when it was 10-0%)
  T/C (%): 0%

## O=c1[nH]cc(F)c(=O)[nH]1 [Example 5-Fu, 5-fluorouracil]
Sarcoma 180 solid tumor; dose 20 mg./kg.
  Rating: + (of 70-51% plus 1 (+))
  T/C (%): 47.8%
[1]; [4]
  Rating: +++ (plus 3 (+++) when it was 10-0%)
  T/C (%): 0%

## CO[C@@]12[C@H](COC(N)=O)C3=C(C(=O)C(C)=C(N)C3=O)N1C[C@@H]1N[C@@H]12 [MMC, mitomycin C]
Sarcoma 180 solid tumor; dose 0.5 mg./kg.
  Rating: - (Ratios (T/C) of 100-71% were rated ineffective (-))
  T/C (%): 71.0%
Sarcoma 180 solid tumor; dose 1.5 mg./kg.
  Rating: ++ (of 50-21% plus 2 (++))
  T/C (%): 32.5%
Sarcoma 180 solid tumor; [5]
  Solid tumor Rating: ++ (of 50-21% plus 2 (++))
  Solid tumor T/C: 38.9
Mouse L-5178Y cells; Mus musculus, L5178Y, 48 h, read-out: ID50
  IC50: 0.09 mg/L (≈ 0.269 µM)
[1]; [6]
  Rating: +++ (plus 3 (+++) when it was 10-0%)
  T/C (%): 0%
[1]; [7]
  Rating: +++ (plus 3 (+++) when it was 10-0%)
  T/C (%): 0%
[1]; [5]
  Ascites tumor Rating: +++ (plus 3 (+++) when it was 10-0%)
  Ascites tumor T/C: 0

## bleomycin [BLM]
Sarcoma 180 solid tumor; dose 10 mg./kg.
  Rating: ++ (of 50-21% plus 2 (++))
  T/C (%): 43.5%
Mouse L-5178Y cells; 37° C., 2 days
  ID50: 7.8 mg/L
[1]; [8]
  Rating: +++ (plus 3 (+++) when it was 10-0%)
  T/C (%): 0%
